In patent US10464893B2, “Derivatives of pyrrole-2,5-diones having a fungicidal activity, their agronomical compositions and use thereof” (ISAGRO S.p.A., priority 2016, dated 2019):

Legend:
Uromyces appendiculatus = assay: Preventive activity (7 days) against Uromyces appendiculatus on beans; format: in vivo; conditions: leaf spray on bean plants, inoculation 7 days after treatment, reduction of diseased leaf area vs non-treated (100=total effectiveness)
Experimental: Determination of the Preventive Activity (7 Days) of Compounds Having Formula (I) Against Uromyces appendiculatus on Beans
Leaves of bean plants, grown in pots, in a conditioned environment (20±1° C., 70% of R.H.), were treated by spraying both sides with the products under examination.
7 days after the treatment, the plants were inoculated with an aqueous suspension of spores of Uromyces appendiculatus (200,000 spores/cc) by spraying on both sides of the leaves with a compressed air gun.
(§1) After remaining 24 hours in a humidity saturated environment, at 21° C., the plants were transferred for the incubation period (7 days) to a conditioned environment at 70% R.H. and at 24° C.
(§2) After this period, the external symptoms of the pathogen appeared and it was consequently possible to proceed with a visual evaluation of the intensity of the infection.
(§3) The fungicidal activity is expressed as a reduction percentage, with respect to non-treated seedlings, in the area of the leaves affected by the disease (100=total effectiveness, 0=zero effectiveness).
Table 3 indicates the results obtained for the compounds tested, compared with the reference product Domark® (Tetraconazole).

Plasmopara viticola = assay: Preventive activity (7 days) against Plasmopara viticola on vines; format: in vivo; conditions: leaf spray on vine plants, inoculation 7 days after treatment, reduction of diseased leaf area vs non-treated (100=total effectiveness)
Experimental: Determination of the Preventive Activity (7 Days) of Compounds Having Formula (I) Against Plasmopara viticola on Vines
Leaves of vine plants, grown in pots, in a conditioned environment (20±1° C., 70% of R.H.), were treated by spraying both sides with the products under examination.
7 days after the treatment, the plants were inoculated with an aqueous suspension of spores of Plasmopara viticola (200,000 spores/cc) by spraying on both sides of the leaves with a compressed air gun.
as §1, §2, §3
Table 2 indicates the results obtained for the compounds tested, compared with the reference product Mancozeb (polymeric complex of manganese ethylenebisdithiocarbamate with zinc salt).

Compound | Effectiveness (%) (Uromyces appendiculatus; dose 125 ppm) | Effectiveness (%) (Uromyces appendiculatus; dose 500 ppm) | Effectiveness (%) (Plasmopara viticola; dose 125 ppm) | Effectiveness (%) (Plasmopara viticola; dose 500 ppm)
CS(=O)(=O)N1C(=O)C(c2ccccc2)=C(c2cccc3ccccc23)C1=O [Compound 3, 1-methanesulfonyl-3-phenyl-4-(1-naphthyl)-1H-pyrrol-2,5-dione] | 84 | 93 | 86 | 99
CC(=O)ON1C(=O)C(c2ccccc2Br)=C(c2cccc3ccccc23)C1=O [Compound 11, 1-acetyloxy-3-(2-bromophenyl)-4-(1-naphthyl)-1H-pyrrole-2,5-dione] | 80 | 95 | 82 | 92
CS(=O)(=O)ON1C(=O)C(c2ccccc2Br)=C(c2cccc3ccccc23)C1=O [Compound 12, 3-(2-bromophenyl)-1-(methane-sulfonyloxy)-4-(1-naphthyl)-1H-pyrrole-2,5-dione] | 83 | 98 | 91 | 93
CCOC(=O)NN1C(=O)C(c2ccccc2Br)=C(c2cccc3ccccc23)C1=O [Compound 13, ethyl 3-(2-bromophenyl)-4-(1-naphthyl)-2,5-dione-1H-pyrrolylcarbamate] | 81 | 92 | 89 | 97
polymeric complex of manganese ethylenebisdithiocarbamate with zinc salt [Mancozeb, reference compound] | – | – | 78 | 96
t-butyl 3-phenyl-4-(1-naphthyl)-2,5-dione-1H-pyrrolylcarbamate [Compound 8] | 93 | 95 | – | –
